In PubChem BioAssay AID1963835 (Molecular Pharmacology Branch, DTP, NCI, 2024) one finds IC50 and viability, T/C data, which are given here for 6 compounds.

The test system of the assay is 699152-130-R-J1-PDC complex spheroid viability. The assay can be described thus: Anticancer human tumor 699152-130-R-J1-PDC patient-derived pancreatic carcinoma cell line growth inhibition [POLQ]. Particulars: for viability, T/C: stronger effect = lower value. The protocol:
Multicellular complex tumor spheroid response to Polymerase (POL) inhibitors (novobiocin, ART-558, RP6685) in combination with a variety of drugs and investigational agents in selected tumor cell lines
The POL inhibitors (novobiocin, ART-558, and RP6685) were evaluated both individually and in combination with standard of care and investigational anticancer small molecules within a complex spheroid model of solid tumors. . Complex spheroids include a stromal component modeled by human endothelial cells (HUVEC) and fibroblasts modeled by human mesenchymal stem cells (MSCs). The concentration ranges selected for each drug and investigational agent were based upon clinically achievable concentrations if the clinical Cmax of the agent was known.
Compounds. The drugs and investigational agents: novobiocin (NSC847541), ART-558 (NSC835418), RP-6685 (NSC848927), peposertib (NSC802822), ceralasertib (NSC780249), elimusertib (NSC800525), camonsertib (NSC841442), AZD-1390 (NSC803789), olaparib (NSC753686), talazoparib (NSC767125), rucaparib (NSC756644), sotorasib (NSC818433), MRTX-1133 (NSC836407), SN-38 (NSC673596), topotecan (NSC609699), epotoside (NSC141540), doxorubicin (NSC123127), gemcitabine (NSC613327), 5-fluorouracil (NSC19893), paclitaxel (NSC125973), vemurafenib (NSC761431), MSA-2 (NSC828583), SN-011 (NSC837082), adavosertib (NSC754352), prexasertib (NSC758257), carboplatin (NSC241240) and oxaliplatin (NSC266046), were obtained from the National Cancer Institute (NCI) Developmental Therapeutics Program Chemical Repository (21). The FDA-approved anticancer drug set is available from the Developmental Therapeutics Program at https://dtp.cancer.gov/organization/dscb/obtaining/. […] The stock solutions were prepared in dimethyl sulfoxide (DMSO, Sigma-Aldrich, St. Louis, MO, cat. D2650), except for the platinum compounds which were prepared in saline (Quality Biological, Gaithersburg, MD, cat. 114-055-101), at 800-fold the tested concentration and stored at -70 degrees C prior to their use. All drugs and investigational agents were tested over a range starting from a high concentration at or near the clinical Cmax and decreasing in half-log increments. If the clinical Cmax for an agent had not been determined, the highest concentration tested was 10 microM, except for SN-38, which was tested at a high concentration of 1 microM.
Cell Culture. All cells were maintained in an incubator at 37 degrees C and 5% CO2 with 95% humidity. The PDC lines were cultured according to standard operating procedures established by the NCI PDMR (https://pdmr.cancer.gov). Table 3 of the manuscript, lists the cell lines along with the number of the three cell types plated to form the mct-spheroids and media for tumor cell growth. After thawing, all PDC lines, except 997537-175-T-J1-PDC and 415267-285-R-J2-PDC, were cultured in Matrigel-coated flasks prepared with a working solution of 1X Ham's F-12 nutrient mix, without supplementation (Thermo Fisher Scientific, cat. 11765054), 100 U/mL penicillin-streptomycin (Thermo Fisher Scientific, cat. 15140122), and 2.5% Matrigel (Corning Inc., Corning, NY, cat. 354248) for the first three passages. The two PDC lines 997537-175-T-J1-PDC and 415267-285-R-J2-PDC were cultured on uncoated flasks. The 857933-349-R-J2-PDC line was cultured in 6C/Colon 1B media containing advanced DMEM/F-12 (Thermo Fisher Scientific, cat. 12634028), 10 mM HEPES (Thermo Fisher Scientific, cat. 15630080), 1X GlutaMAX supplement (Thermo Fisher Scientific, cat. 35050061), 0.1 mg/mL primocin (InvivoGen, San Diego, CA, cat. ant-pm-2), 10% defined fetal bovine serum, heat inactivated (HyClone Laboratories Inc., Logan, UT, cat. SH30070.03HI), 50% L-WRN conditioned media (ATCC, cat. CRL-3276), 1.25 mM N-Acetyl-L-cysteine (Sigma-Aldrich, cat. A9165), 10 mM nicotinamide (Sigma-Aldrich, cat. N0636), 1X B-27 supplement (Thermo Fisher Scientific, cat. 17504044), 1X N-2 supplement (Thermo Fisher Scientific, cat. […]

The mark [1] stands for this setting: curve of first compound, second compound 0.0316 µM.
Where [2] appears, read: curve of first compound, second compound 0.1 µM.
Setting [3] is: curve of first compound, second compound 0.316 µM.
The mark [4] stands for this setting: curve of first compound, second compound 1 µM.
[5] abbreviates: curve of first compound, second compound 3.16 µM.
Setting [6] is: curve of first compound, second compound 10 µM.
[7] abbreviates: second compound 0.0316 µM, first compound 0.0316 µM.
The mark [8] stands for this setting: second compound 0.0316 µM, first compound 0.1 µM.
The mark [9] stands for this setting: second compound 0.0316 µM, first compound 0.316 µM.
The mark [10] stands for this setting: second compound 0.0316 µM, first compound 1 µM.
Setting [11] is: second compound 0.1 µM, first compound 0.0316 µM.
The mark [12] stands for this setting: second compound 0.1 µM, first compound 0.1 µM.
Setting [13] is: second compound 0.1 µM, first compound 0.316 µM.
Setting [14] is: second compound 0.1 µM, first compound 1 µM.
Where [15] appears, read: second compound 0.316 µM, first compound 0.0316 µM.
[16] abbreviates: second compound 0.316 µM, first compound 0.1 µM.
[17] abbreviates: second compound 0.316 µM, first compound 0.316 µM.
Setting [18] is: second compound 0.316 µM, first compound 1 µM.
Where [19] appears, read: second compound 1 µM, first compound 0.0316 µM.
Where [20] appears, read: second compound 1 µM, first compound 0.1 µM.
The mark [21] stands for this setting: second compound 1 µM, first compound 0.316 µM.
Setting [22] is: second compound 1 µM, first compound 1 µM.
Where [23] appears, read: second compound 3.16 µM, first compound 0.0316 µM.
Where [24] appears, read: second compound 3.16 µM, first compound 0.1 µM.
[25] abbreviates: second compound 3.16 µM, first compound 0.316 µM.
The mark [26] stands for this setting: second compound 3.16 µM, first compound 1 µM.
Setting [27] is: second compound 10 µM, first compound 0.0316 µM.
The mark [28] stands for this setting: second compound 10 µM, first compound 0.1 µM.
Setting [29] is: second compound 10 µM, first compound 0.316 µM.
The mark [30] stands for this setting: second compound 10 µM, first compound 1 µM.

Where “and” joins values, the source holds several entries; their conditions need not be identical. Equal entries are not always repeated. Where only a bound is given, the exact number is not on record here.
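Further: spheroids exposed to agents for 7 days before viability reading.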
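Wherever viability, T/C is given: percent of DMSO vehicle control viability so 100% = vehicle and 0% = no viable signal.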

In general, IC50 refers to the point on the concentration scale where inhibition reaches its midpoint. As usually defined, the viability, T/C is the result in the treated group divided by that in the control group, in per cent. In the case of `COc1cc2cc(C(=O)CCC(=O)O)sc2cc1OC` + COC1C(OC(N)=O)C(O)C(Oc2ccc3c(O)c(NC(=O)c4ccc(O)c(CC=C(C)C)c4)c(=O)oc3c2C)OC1(C)C, the IC50 is, setting by setting: under setting [1], > 10 µM; under setting [2], > 10 µM; under setting [3], > 10 µM; under setting [4], > 10 µM; under setting [5], > 10 µM; under setting [6], > 10 µM. Moreover, the viability, T/C is 104% under setting [7]; 113% under setting [8]; 97.1% under setting [9]; 95.8% under setting [10]; 106% (second compound 0.0316 µM, first compound 3.16 µM); 103% (second compound 0.0316 µM, first compound 10 µM). Besides, the viability, T/C is, setting by setting: under setting [11], 91.2%; under setting [12], 109%; under setting [13], 94.3%; under setting [14], 93.7%; (second compound 0.1 µM, first compound 3.16 µM) 103%; (second compound 0.1 µM, first compound 10 µM) 97.5%. The viability, T/C is 107% under setting [15]; 110% under setting [16]; 105% under setting [17]; 108% under setting [18]; 101% (second compound 0.316 µM, first compound 3.16 µM); 95.8% (second compound 0.316 µM, first compound 10 µM). Further, the viability, T/C was 110% under setting [19]; 105% under setting [20]; 93% under setting [21]; 102% under setting [22]; 98.6% (second compound 1 µM, first compound 3.16 µM); 103% (second compound 1 µM, first compound 10 µM). The viability, T/C under setting [23] was 110%; the viability, T/C under setting [24] was 98.6%; the viability, T/C under setting [25] is 107%; the viability, T/C under setting [26] was 92.4%; the viability, T/C (second compound 3.16 µM, first compound 3.16 µM) was 109%; the viability, T/C (second compound 3.16 µM, first compound 10 µM) was 102%. Also, the viability, T/C reads like this: under setting [27], 113%; under setting [28], 100%; under setting [29], 120%; under setting [30], 107%; (second compound 10 µM, first compound 3.16 µM) 98.8%; (second compound 10 µM, first compound 10 µM) 106%.
For the compound `C=CCn1c(=O)c2cnc(Nc3ccc(N4CCN(C)CC4)cc3)nc2n1-c1cccc(C(C)(C)O)n1`, the viability, T/C (compound 0.00316 µM) was 103% and 97% and 105%; the viability, T/C (compound 0.01 µM) was 104% and 91.6% and 100%; the viability, T/C (compound 0.0316 µM) is 88.6% and 89.3% and 105%; the viability, T/C (compound 0.1 µM) was 96.8% and 92.2% and 110%; the viability, T/C (compound 0.316 µM) is 90.3% and 78.7% and 84.2%; the viability, T/C (compound 1 µM) is 74.6% and 69.8% and 72.5%. For the same compound, where the note is “curve of compound”, the IC50 was > 1 µM.
For `CCc1cc2c(N3CCc4c(cc(Cn5ccnc5)cc4-c4cn(C)nc4C(F)(F)F)C3=O)cc(C)nc2c(OC)n1`, the viability, T/C is 102% and 78.7% and 85.8% (compound 0.0316 µM); 92.1% and 90.3% and 81.5% (compound 0.1 µM); 89.2% and 94.7% and 93.9% (compound 0.316 µM); 95.1% and 94.6% and 98.4% (compound 1 µM); 102% and 105% (2×) (compound 3.16 µM); 97% and 99% and 107% (compound 10 µM). Besides, the IC50 (curve of compound) is > 10 µM.
Turning to `CC[C@@]1(O)C(=O)OCc2c1cc1n(c2=O)Cc2cc3c(CN(C)C)c(O)ccc3nc2-1`, the viability, T/C is 93.1% and 110% and 102% (compound 0.000316 µM); 97.6% and 90% and 108% (compound 0.001 µM); 98.8% and 105% and 99.5% (compound 0.00316 µM); 94.2% and 111% and 93.4% (compound 0.01 µM); 72.9% and 81.9% and 79.4% (compound 0.0316 µM); 59.6% and 68.9% and 54.6% (compound 0.1 µM). The IC50 (curve of compound) is > 0.1 µM.
Consider `COc1cccc(OCCCN)c1-c1cc(Nc2cnc(C#N)cn2)n[nH]1` + Nc1ccc(C#CCN(C(=O)Cc2ncc(C(F)(F)F)cc2C(F)(F)F)c2ccc(F)cc2)nn1, for which the IC50 is > 1 µM under setting [1]; > 1 µM under setting [2]; > 1 µM under setting [3]; > 1 µM under setting [4]; > 1 µM under setting [5]; > 1 µM under setting [6]. For the same compound, the viability, T/C reads like this: (second compound 0.0316 µM, first compound 0.00316 µM) 90.3%; (second compound 0.0316 µM, first compound 0.01 µM) 101%; under setting [7], 72.8%; under setting [8], 64.2%; under setting [9], 62.4%; under setting [10], 65%. Also, the viability, T/C is 92.2% (second compound 0.1 µM, first compound 0.00316 µM); 101% (second compound 0.1 µM, first compound 0.01 µM); 73.4% under setting [11]; 59.3% under setting [12]; 65.8% under setting [13]; 56.1% under setting [14]. Moreover, the viability, T/C reads like this: (second compound 0.316 µM, first compound 0.00316 µM) 99.3%; (second compound 0.316 µM, first compound 0.01 µM) 93.8%; under setting [15], 74.8%; under setting [16], 68.6%; under setting [17], 60.8%; under setting [18], 59.9%. Besides, the viability, T/C is 111% (second compound 1 µM, first compound 0.00316 µM); 100% (second compound 1 µM, first compound 0.01 µM); 79.6% under setting [19]; 69% under setting [20]; 62.2% under setting [21]; 55.8% under setting [22]. Also, the viability, T/C by setting is: (second compound 3.16 µM, first compound 0.00316 µM) 109%; (second compound 3.16 µM, first compound 0.01 µM) 94.4%; under setting [23], 70.1%; under setting [24], 60.6%; under setting [25], 66.1%; under setting [26], 65%. For the same compound, the viability, T/C was 121% (second compound 10 µM, first compound 0.00316 µM); 92.3% (second compound 10 µM, first compound 0.01 µM); 71.8% under setting [27]; 64.7% under setting [28]; 66.3% under setting [29]; 60.5% under setting [30].
As for `Nc1ccc(C#CCN(C(=O)Cc2ncc(C(F)(F)F)cc2C(F)(F)F)c2ccc(F)cc2)nn1`, the viability, T/C (compound 0.0316 µM) is 96.2% [middle of 13 runs]; the viability, T/C (compound 0.1 µM) was 99.3% [middle of 13 runs]; the viability, T/C (compound 0.316 µM) is 101% [middle of 13 runs]; the viability, T/C (compound 1 µM) was 101% [middle of 13 runs]; the viability, T/C (compound 3.16 µM) is 103% [middle of 13 runs]; the viability, T/C (compound 10 µM) is 113% [middle of 13 runs]. For the same compound, under “compound alone, run of 12/05/2023”, the IC50 is > 10 µM.
